Experimental data reported in ChEMBL document CHEMBL1201862, “PubChem BioAssay data set” (2004).
Activity calls are given as the source filed them.

Assays:
[1] = system: Escherichia coli; test: microbe, parasite or virus in culture
[2] = target: T1, Leucine aminopeptidase (Plasmodium falciparum 3D7, UniProt Q8IL11); test: P. falciparum M17LAP inhibitors, primary screen, biochemical, fluorogenic H-Leu-NHMec substrate, 1536-well (AID 1619); format: functional
T1 sequence (Q8IL11 whole entry): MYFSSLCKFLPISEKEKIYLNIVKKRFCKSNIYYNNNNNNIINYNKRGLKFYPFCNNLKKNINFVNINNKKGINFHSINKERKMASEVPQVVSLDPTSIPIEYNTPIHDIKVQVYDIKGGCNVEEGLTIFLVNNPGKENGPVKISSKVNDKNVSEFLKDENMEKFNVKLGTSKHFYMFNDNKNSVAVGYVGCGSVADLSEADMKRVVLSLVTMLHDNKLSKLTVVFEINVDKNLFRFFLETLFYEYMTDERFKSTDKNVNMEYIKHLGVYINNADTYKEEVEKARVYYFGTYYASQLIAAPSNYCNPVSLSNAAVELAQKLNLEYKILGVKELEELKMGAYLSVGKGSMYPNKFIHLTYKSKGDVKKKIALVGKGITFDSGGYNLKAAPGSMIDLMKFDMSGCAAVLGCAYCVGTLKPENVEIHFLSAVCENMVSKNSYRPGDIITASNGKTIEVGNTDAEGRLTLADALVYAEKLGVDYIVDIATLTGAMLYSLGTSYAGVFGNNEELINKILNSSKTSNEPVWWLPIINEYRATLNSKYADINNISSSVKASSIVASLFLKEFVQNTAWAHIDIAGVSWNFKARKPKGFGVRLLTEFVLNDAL

[3] = target: T2, Aminopeptidase N (Plasmodium falciparum FcB1/Columbia, UniProt O96935); test: malaria alanyl aminopeptidase activity blockers – biochemical, fluorogenic H-Leu-NHMec substrate, 1536-well (AID 1445); design: species or system Plasmodium falciparum 3D7, 3D7
T2 sequence (O96935 whole entry): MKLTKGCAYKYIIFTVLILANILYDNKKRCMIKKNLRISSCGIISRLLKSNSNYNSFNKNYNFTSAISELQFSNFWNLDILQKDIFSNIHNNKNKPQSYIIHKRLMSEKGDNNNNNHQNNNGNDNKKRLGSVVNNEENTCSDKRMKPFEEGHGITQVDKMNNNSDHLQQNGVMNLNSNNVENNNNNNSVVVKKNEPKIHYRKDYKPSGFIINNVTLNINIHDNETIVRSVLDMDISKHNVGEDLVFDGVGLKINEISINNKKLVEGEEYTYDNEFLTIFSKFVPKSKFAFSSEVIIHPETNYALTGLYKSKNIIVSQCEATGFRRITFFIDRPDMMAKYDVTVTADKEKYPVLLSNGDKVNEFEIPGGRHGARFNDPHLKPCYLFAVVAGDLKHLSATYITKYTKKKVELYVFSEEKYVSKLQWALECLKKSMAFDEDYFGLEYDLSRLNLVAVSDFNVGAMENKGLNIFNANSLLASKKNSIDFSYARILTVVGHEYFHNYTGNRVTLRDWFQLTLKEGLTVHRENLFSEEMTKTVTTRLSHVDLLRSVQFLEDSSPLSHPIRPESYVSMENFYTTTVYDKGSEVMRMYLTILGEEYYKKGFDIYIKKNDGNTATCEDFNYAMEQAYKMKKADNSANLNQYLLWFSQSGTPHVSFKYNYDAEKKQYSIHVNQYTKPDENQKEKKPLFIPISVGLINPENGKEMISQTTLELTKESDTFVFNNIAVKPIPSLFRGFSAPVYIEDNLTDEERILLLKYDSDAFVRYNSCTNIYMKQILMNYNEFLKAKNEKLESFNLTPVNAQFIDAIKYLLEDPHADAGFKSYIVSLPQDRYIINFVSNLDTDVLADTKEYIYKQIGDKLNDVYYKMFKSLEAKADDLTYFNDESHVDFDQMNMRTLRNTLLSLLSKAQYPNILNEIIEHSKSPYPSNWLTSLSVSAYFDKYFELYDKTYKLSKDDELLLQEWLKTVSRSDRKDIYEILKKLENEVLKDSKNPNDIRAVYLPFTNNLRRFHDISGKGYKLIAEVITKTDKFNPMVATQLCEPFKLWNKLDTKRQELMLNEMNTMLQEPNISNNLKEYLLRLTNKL

[4] = target: Beta-galactosidase (Escherichia coli, UniProt Q8VNN2); test: PubChem AID 485352; format: functional
[5] = target: T3, Type-1 angiotensin II receptor (Homo sapiens, UniProt P30556); test: antagonism of angiotensin II type 1 receptor – cell-based, uHTS hits, selectivity assay for APJ receptor antagonist project, dose response (AID 463214); format: functional;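 note: antagonist potency against angiotensin II stimulated AT1 response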
T3 sequence (P30556 whole entry): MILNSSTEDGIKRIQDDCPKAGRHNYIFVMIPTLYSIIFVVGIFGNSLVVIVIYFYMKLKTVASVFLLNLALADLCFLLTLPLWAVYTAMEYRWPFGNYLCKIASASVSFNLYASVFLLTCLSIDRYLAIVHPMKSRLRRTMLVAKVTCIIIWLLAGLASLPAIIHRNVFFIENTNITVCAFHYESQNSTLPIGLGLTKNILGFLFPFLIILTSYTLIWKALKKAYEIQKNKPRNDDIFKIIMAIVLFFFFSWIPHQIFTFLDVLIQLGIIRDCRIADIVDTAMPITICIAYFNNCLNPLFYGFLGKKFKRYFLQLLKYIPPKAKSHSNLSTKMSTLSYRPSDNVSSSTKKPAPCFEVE

[6] = target: Voltage-dependent T-type calcium channel subunit alpha-1H (Homo sapiens, UniProt O95180); format: functional;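 note: channel activity triggered by adding a high calcium stimulation buffer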
[7] = target: T4, Short transient receptor potential channel 4 (Mus musculus, UniProt Q9QUQ5); test: block of DAMGO-driven TRPC4 calcium entry – cell-based, HEK293 TRPC4/mu-opioid, Fluo-4 calcium, dose response (AID 434942); format: functional;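 note: potency of inhibitors blocking the TRPC4 calcium response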
T4 sequence (Q9QUQ5 whole entry): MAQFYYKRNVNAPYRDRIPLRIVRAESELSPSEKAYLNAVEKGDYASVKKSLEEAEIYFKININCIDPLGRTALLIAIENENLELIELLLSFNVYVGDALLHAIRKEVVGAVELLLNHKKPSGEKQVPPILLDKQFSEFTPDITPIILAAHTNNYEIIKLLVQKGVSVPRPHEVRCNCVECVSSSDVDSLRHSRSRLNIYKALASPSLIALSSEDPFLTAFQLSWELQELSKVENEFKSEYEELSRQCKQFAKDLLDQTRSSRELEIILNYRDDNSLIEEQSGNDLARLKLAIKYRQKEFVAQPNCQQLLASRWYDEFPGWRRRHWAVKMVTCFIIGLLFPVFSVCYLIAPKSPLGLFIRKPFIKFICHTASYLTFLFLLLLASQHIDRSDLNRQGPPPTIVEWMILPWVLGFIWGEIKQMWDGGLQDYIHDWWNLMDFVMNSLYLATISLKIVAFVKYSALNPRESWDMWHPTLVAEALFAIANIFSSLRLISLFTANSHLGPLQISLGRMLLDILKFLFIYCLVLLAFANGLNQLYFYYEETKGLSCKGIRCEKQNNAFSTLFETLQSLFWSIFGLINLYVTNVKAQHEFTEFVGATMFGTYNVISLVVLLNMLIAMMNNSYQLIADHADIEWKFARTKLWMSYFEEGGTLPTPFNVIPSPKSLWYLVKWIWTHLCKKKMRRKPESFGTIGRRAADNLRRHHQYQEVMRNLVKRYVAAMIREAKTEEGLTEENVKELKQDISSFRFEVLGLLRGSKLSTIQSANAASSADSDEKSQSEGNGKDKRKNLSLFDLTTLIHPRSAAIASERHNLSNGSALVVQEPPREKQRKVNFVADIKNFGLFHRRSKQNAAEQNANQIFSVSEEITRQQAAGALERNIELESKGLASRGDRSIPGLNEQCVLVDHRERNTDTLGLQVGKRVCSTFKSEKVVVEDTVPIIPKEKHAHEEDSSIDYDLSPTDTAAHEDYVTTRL

[8] = HEK-293T viability loss after treatment – luminescence, T-cell screen hits, cytotoxicity control for TCR NF-kB inhibitor project, dose response (AID 489026); format: functional, cell-based;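 note: cells exposed to compound about 14 hours before the viability readout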
[9] = system: HEK293; test: NOD2 signaling inhibitors in MDP-stimulated cells, cell-based, uHTS, luminescence (AID 2001); format: functional; settings: Homo sapiens
[10] = system: HEK293; test: inhibition of NOD1-driven NF-kB reporter – cell-based, luminescence, uHTS, primary screen (AID 1578); format: functional; settings: Homo sapiens
[11] = system: HEK293; test: cells; format: functional, cell-based; settings: Homo sapiens
[12] = system: INS1; test: INS-1E survival protection against cytokine death – cell-based, luminescence, retest, dose response (AID 449756); format: functional; settings: Rattus norvegicus;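 note: cell death triggered by IL-1 beta plus TNF-alpha plus IFN-gamma mixture; protective hits raise ATP signal compared with cytokine alone wells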
[13] = reduction of Shn3 3'UTR-driven luciferase in osteoblasts – cell-based, Clone20 osteoblasts, firefly luciferase, cherry-picked, dose response (AID 624132); format: functional;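 note: firefly luciferase luminescence from reporter carrying the Shn3 3'UTR in osteoblasts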
[14] = system: HEK293; test: cells; format: functional, cell-based; settings: Homo sapiens; remark: listed apart in the source
[15] = target: Nucleotide-binding oligomerization domain-containing protein 2 (Homo sapiens, UniProt Q9HC29); test: inhibition of NOD2-driven NF-kB reporter – cell-based, luminescence, uHTS, HEK293 (AID 1566); format: functional
[16] = loss of viability in HepG2 cells – cell-based, CellTiter-Glo, cherry-picked, cytotoxicity control for Shn3 inhibitor project, dose response (AID 624134); format: functional
[17] = system: HEK293; test: cells; format: functional, cell-based; settings: Homo sapiens; remark: listed apart in the source
[18] = target: T5, Alkaline phosphatase, tissue-nonspecific isozyme (Homo sapiens, UniProt P05186); test: potency against alkaline phosphatase TNAP – biochemical, luminescent, dose response, SAR follow-up (AID 1056)
T5 sequence (P05186 whole entry): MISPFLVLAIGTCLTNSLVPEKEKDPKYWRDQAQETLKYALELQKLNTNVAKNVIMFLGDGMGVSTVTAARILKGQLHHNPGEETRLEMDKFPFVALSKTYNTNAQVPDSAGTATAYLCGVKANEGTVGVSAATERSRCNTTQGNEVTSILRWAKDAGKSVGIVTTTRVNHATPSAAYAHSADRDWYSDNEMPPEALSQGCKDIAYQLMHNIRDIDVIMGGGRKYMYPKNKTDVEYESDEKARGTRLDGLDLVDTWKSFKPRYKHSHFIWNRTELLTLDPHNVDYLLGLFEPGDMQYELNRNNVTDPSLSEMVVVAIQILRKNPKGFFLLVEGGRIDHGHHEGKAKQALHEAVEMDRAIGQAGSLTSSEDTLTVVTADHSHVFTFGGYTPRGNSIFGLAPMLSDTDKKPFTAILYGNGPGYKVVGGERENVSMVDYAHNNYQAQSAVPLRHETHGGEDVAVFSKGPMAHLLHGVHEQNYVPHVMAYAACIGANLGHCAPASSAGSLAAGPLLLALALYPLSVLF

[19] = target: Alkaline phosphatase, placental type (Homo sapiens, UniProt P05187); test: human placental alkaline phosphatase inhibition – biochemical, luminescence, confirmation (AID 1512); format: functional
Sequence of Alkaline phosphatase, placental type (P05187 whole entry): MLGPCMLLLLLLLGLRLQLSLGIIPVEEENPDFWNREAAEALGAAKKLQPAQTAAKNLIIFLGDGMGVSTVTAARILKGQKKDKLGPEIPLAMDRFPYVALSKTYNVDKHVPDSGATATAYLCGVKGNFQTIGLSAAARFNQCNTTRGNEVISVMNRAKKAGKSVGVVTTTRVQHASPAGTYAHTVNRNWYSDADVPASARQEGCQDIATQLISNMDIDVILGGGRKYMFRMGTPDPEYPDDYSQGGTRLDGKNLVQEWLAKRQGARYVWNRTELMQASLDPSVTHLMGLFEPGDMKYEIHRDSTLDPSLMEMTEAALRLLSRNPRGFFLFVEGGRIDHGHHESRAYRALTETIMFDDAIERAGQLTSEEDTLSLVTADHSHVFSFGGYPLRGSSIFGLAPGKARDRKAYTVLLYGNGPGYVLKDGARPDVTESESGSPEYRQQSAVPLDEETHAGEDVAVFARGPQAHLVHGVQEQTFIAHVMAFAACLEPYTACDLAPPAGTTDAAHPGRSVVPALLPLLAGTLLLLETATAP

Sequence of Voltage-dependent T-type calcium channel subunit alpha-1H (O95180 whole entry): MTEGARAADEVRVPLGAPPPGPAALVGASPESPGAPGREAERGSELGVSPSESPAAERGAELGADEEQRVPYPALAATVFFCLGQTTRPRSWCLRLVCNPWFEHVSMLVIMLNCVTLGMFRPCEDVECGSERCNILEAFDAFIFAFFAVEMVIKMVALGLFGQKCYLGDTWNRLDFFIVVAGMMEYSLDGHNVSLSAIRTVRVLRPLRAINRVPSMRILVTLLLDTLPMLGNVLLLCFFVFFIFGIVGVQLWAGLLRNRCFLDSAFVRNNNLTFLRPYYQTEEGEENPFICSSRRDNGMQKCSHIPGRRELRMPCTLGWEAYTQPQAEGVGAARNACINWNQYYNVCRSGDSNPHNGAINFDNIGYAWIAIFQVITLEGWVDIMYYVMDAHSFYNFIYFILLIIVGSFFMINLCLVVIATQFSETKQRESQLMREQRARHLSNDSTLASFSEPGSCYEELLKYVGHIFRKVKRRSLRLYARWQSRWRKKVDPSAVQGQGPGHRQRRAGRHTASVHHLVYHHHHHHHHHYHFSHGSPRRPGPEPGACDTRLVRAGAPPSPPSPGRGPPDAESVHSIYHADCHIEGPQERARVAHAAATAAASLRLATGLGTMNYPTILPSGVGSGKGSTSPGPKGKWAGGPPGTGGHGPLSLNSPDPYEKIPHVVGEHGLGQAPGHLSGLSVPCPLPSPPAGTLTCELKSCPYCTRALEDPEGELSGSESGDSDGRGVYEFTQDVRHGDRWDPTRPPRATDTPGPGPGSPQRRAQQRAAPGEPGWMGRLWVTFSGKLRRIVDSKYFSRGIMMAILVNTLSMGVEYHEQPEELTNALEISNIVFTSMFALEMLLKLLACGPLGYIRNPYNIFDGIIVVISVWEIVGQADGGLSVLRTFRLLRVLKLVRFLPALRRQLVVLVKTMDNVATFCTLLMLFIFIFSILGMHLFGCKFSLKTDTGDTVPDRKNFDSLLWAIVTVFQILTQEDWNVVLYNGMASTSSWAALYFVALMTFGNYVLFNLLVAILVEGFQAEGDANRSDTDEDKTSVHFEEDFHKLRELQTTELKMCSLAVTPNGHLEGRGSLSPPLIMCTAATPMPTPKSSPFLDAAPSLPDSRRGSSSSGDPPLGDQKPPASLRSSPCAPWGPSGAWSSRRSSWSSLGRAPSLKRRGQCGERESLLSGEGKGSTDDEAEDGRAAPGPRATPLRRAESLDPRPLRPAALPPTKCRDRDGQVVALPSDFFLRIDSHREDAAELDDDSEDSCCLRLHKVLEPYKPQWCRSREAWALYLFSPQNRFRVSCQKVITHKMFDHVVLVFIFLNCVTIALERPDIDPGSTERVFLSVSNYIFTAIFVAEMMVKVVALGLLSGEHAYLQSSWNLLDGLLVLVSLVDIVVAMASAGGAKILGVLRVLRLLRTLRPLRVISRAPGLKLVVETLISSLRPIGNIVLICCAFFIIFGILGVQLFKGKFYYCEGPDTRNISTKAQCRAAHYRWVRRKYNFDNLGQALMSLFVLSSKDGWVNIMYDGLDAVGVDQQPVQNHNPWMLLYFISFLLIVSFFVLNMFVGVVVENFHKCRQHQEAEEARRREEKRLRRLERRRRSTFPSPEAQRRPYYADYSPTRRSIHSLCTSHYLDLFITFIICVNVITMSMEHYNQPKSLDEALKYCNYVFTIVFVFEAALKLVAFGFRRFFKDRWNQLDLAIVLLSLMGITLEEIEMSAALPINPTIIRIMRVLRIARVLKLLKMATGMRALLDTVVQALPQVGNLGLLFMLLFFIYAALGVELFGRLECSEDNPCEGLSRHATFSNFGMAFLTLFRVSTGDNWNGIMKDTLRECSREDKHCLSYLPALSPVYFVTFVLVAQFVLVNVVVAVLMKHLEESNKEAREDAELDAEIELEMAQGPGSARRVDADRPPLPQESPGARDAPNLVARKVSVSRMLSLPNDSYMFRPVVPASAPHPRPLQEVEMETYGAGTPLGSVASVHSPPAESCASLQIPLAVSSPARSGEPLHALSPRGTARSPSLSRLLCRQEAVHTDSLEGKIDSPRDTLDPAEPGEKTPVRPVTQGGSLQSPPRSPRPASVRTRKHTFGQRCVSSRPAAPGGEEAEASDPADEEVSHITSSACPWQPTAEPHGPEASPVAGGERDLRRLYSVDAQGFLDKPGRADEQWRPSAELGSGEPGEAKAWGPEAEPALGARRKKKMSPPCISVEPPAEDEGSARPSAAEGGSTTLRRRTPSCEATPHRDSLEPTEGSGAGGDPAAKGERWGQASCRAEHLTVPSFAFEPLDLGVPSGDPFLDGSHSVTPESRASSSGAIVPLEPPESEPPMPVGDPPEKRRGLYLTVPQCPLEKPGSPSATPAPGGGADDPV
Sequence of Beta-galactosidase (Q8VNN2 whole entry): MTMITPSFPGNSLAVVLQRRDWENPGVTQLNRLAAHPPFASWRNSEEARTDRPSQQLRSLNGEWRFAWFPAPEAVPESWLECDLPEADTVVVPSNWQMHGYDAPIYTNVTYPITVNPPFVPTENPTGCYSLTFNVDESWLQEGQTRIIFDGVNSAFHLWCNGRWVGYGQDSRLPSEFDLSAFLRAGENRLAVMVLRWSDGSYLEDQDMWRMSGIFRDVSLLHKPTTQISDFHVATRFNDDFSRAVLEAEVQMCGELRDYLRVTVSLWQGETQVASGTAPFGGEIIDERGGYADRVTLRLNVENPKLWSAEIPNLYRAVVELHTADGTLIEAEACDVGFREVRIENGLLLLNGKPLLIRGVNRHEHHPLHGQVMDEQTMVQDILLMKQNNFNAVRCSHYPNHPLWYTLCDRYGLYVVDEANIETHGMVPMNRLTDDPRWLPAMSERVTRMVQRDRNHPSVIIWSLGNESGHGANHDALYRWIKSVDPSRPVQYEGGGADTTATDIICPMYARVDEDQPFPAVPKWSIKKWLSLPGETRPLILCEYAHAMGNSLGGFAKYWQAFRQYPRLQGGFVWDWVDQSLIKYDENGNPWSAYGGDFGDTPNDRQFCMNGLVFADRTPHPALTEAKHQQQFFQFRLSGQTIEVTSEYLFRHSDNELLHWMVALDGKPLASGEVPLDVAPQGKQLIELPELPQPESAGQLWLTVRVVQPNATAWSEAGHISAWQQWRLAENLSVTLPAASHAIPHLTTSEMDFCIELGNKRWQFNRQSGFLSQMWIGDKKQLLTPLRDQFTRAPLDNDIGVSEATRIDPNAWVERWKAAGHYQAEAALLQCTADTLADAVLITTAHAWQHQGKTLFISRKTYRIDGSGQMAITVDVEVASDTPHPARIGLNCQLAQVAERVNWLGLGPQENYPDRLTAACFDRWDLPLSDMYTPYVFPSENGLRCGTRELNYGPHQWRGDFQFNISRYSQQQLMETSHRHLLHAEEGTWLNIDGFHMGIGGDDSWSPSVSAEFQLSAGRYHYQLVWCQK
Sequence of Nucleotide-binding oligomerization domain-containing protein 2 (Q9HC29 whole entry, the tested form may be a part): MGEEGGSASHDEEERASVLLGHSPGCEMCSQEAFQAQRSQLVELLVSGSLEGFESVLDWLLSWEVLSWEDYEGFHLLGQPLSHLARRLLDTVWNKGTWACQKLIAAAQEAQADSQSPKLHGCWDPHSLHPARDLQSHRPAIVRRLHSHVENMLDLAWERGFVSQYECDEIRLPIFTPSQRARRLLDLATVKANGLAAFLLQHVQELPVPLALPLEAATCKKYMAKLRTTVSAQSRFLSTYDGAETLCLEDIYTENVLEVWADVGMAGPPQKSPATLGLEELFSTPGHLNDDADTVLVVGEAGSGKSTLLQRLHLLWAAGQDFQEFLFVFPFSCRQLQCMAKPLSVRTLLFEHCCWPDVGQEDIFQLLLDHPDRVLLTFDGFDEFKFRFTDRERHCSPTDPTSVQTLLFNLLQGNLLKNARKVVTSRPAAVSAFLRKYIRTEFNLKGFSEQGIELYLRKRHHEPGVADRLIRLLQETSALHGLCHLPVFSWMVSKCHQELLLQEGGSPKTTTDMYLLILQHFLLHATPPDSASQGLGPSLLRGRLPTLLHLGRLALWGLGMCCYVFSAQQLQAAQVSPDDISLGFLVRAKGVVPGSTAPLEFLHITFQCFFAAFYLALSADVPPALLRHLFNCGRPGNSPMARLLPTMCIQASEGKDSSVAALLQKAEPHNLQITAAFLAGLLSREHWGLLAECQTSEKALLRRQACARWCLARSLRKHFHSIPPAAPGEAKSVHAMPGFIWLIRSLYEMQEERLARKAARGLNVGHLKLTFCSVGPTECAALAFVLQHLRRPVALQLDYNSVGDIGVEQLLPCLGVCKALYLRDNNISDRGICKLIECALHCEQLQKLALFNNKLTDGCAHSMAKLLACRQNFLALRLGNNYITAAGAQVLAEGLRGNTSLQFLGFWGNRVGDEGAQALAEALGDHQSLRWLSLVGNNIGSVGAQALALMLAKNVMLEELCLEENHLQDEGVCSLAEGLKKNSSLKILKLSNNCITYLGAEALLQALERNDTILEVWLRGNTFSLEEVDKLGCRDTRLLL

COCCN(C(S)=Nc1c(C)cc(C)cc1C)C(C)c1cccnc1 (stereo not drawn)
AC50 [1]: 57.7 µM (active)

COc1cc(NC(=O)CSc2ncnc3scc(-c4ccccc4)c23)c(C(=O)O)cc1OC
IC50 [2]: < 1 µM (active) | IC50 [3]: 40.1 µM (active)

Cc1ccc(N=C2C(=O)Nc3c(C)cccc32)cc1
EC50 [4]: > 40 µM (inactive) | IC50 [5]: > 40 µM (not active)

CC(C)(C)n1nnnc1CN(Cc1ccc(F)cc1)Cc1ccco1
EC50 [6]: 6.27 µM (active)

O=C(CCCSc1nc2ccccc2[nH]1)NCc1ccccc1Cl
EC50 [7]: 3.76 µM (active)

CN1CCN(c2nc3c(c(=O)n(C)c(=O)n3C)n2CC(=O)C23CC4CC(CC(C4)C2)C3)CC1
EC50 [7]: 2.11 µM (active)

COc1ccc(NS(=O)(=O)c2ccc(-c3cnc(C4CC4)o3)cc2)cc1OC
IC50 [8]: > 80 µM (inactive) | IC50 [9]: 6.25 µM (active) | EC50 [10]: 2.04 µM (active) | IC50 [11]: 18.4 µM (active) | AC50 [12]: 3.52 µM (active) | AC50 [13]: 1.33 µM (active) | IC50 [14]: 6.05 µM (active) | EC50 [15]: 14.4 µM (active) | AC50 [16]: 2.32 µM (active) | IC50 [17]: > 20 µM (inactive)

O=C(COC(=O)CCc1ccc(S(=O)(=O)N2CCCCC2)cc1)Nc1ccc2c(c1)OCO2
EC50 [6]: 26.4 µM (active)

CN1CCN(Cc2nc3ccccc3c(=O)n2Cc2nc(-c3cccc([N+](=O)[O-])c3)cs2)CC1
IC50 [3]: 79.7 µM (active)

O=C(CSc1nc2ccccc2o1)c1ccc(O)c(O)c1
IC50 [18]: 4.15 µM (active) | IC50 [19]: 3.06 µM (active)

CCOC(=O)C1(c2ccccc2)CCN(CC(=O)Nc2ccc(C)cc2)CC1
EC50 [7]: 2.99 µM (active)
